Experimental data: patent US9957271B2, “Substituted bicyclic aza-heterocycles and analogues as sirtuin modulators” (GlaxoSmithKline, LLC, priority 2012, dated 2018)

Tests used:
SIRT1 [1] = molecular target: T1, SIRT1 (Homo sapiens, UniProt Q96EB6); test: TAMRA based mass spectrometry assay of SIRT1 activity; format: biochemical; settings: for TAMRA EC1.5 / TAMRA EC1.5 (μM): concentration giving 150% activation of SIRT1; for Emax: percent maximum fold activation, read-out: TAMRA % Fold Act
T1 sequence (Q96EB6 1-747): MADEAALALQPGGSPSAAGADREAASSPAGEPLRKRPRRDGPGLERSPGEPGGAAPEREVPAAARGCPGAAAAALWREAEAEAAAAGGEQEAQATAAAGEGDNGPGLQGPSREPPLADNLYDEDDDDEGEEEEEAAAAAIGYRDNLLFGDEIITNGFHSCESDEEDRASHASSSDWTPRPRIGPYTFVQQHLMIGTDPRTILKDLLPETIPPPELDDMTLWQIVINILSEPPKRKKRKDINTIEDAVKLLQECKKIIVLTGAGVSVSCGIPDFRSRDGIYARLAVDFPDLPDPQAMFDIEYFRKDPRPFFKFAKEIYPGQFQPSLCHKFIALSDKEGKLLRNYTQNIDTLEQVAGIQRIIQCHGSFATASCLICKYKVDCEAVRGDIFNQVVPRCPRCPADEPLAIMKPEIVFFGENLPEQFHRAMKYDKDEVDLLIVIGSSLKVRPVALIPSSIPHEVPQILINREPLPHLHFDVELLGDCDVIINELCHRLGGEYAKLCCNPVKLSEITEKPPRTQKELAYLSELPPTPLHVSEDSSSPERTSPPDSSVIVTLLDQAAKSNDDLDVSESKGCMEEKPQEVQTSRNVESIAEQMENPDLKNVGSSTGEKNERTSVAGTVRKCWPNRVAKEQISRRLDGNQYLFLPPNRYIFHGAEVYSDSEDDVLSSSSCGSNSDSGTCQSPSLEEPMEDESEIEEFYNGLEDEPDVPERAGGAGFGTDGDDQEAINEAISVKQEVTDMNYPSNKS
How it was run: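 Deacetylation of a biotinylated, TAMRA-tagged p53-based peptide (0.5 μM) by 10 nM His-tagged SIRT1 with 120 μM βNAD+, 25 °C for 25 min, pH 8 Tris-acetate buffer, across a compound concentration range. Quenched by formic acid and read by mass spec as product peptide or OAADPR; activity relative to DMSO reactions, nicotinamide defining maximal inhibition.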

SIRT1 [2] = molecular target: T1, SIRT1; test: Trp mass spectrometry assay of SIRT1 activity; format: biochemical; settings: for Trp EC1.5 / Trp EC1.5 (μM): concentration giving 150% activation of SIRT1; for Emax: percent maximum fold activation, read-out: Trp % Fold Act
How it was run: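 Activation readout: EC1.5 (concentration raising activity 50% over control) and percent maximum activation, from mass-spec quantitation of OAADPR or deacetylated Trp peptide. Reaction: 0.5 μM acetylated Trp peptide, 120 μM βNAD+, 10 nM bacterially expressed N-His SIRT1, pH 7.5 HEPES buffer with […], 25 min at 25° C.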

SMILES	TAMRA EC1.5 (SIRT1 [1]; TAMRA peptide substrate)	Emax (SIRT1 [1]; TAMRA peptide substrate)	Trp EC1.5 (SIRT1 [2]; Trp peptide substrate)	Emax (SIRT1 [2]; Trp peptide substrate)	TAMRA EC1.5 (μM) (SIRT1 [1]; TAMRA assay)	Emax (SIRT1 [1]; TAMRA assay)	Trp EC1.5 (μM) (SIRT1 [2]; Trp assay)	Emax (SIRT1 [2]; Trp assay)
Cc1nc2c(C)cc(-c3ccccc3C(F)(F)F)nn2c1C(=O)Nc1cnccn1 [Compound 586]	A (EC1.5<1 μM)	≥ 350%	A (EC1.5<1 μM)	≥ 350%				
COc1cccc(C(=O)Nc2c(C)nc3c(C)cc(-c4ccccc4C(F)(F)F)nn23)n1 [Compound 589, N-(2,8-dimethyl-6-(2-(trifluoromethyl)phenyl)imidazo[1,2-b]pyridazin-3-yl)-6-methoxypicolinamide]	B (EC1.5 1-25 μM)	≥ 350%	B (EC1.5 1-25 μM)	< 350%				
Cc1nc2c(C)cc(-c3ccccc3C(F)(F)F)nn2c1NC(=O)c1cccc(O)n1 [Compound 590]	B (EC1.5 1-25 μM)	< 350%	C (EC1.5>25 μM)	< 350%				
Cc1cc(C)nc(NC(=O)c2cnc3ccc(-c4cccc(OC[C@H](O)CO)c4)nn23)c1 [Compound 591]	A (EC1.5<1 μM)	≥ 350%	A (EC1.5<1 μM)	< 350%				
Cc1nc2ccc(-c3cccc(OC[C@H](O)CO)c3)nn2c1C(=O)Nc1ccncn1 [Compound 594]	B (EC1.5 1-25 μM)	< 350%	B (EC1.5 1-25 μM)	< 350%				
Cc1nc2ccc(-c3cccc(OC[C@H](O)CO)c3)nn2c1C(=O)Nc1cccnn1 [Compound 597]					B (EC1.5 1-25 μM)	< 350%	A (EC1.5<1 μM)	< 350%
Cc1cc(-c2ccccc2C(F)(F)F)nn2c(C(=O)Nc3ccnc(O[C@@H]4CCOC4)n3)cnc12 [Compound 598]					A (EC1.5<1 μM)	≥ 350%	A (EC1.5<1 μM)	≥ 350%
CCOc1nccc(NC(=O)c2cnc3ccc(-c4ccccc4C(F)(F)F)nn23)n1 [Compound 600]					A (EC1.5<1 μM)	≥ 350%	A (EC1.5<1 μM)	≥ 350%
Cc1cnc(NC(=O)c2cnn3ccc(-c4ccccc4OC(F)(F)F)nc23)s1 [Compound 603]					B (EC1.5 1-25 μM)	≥ 350%	B (EC1.5 1-25 μM)	< 350%
Cc1ccncc1NC(=O)c1cnn2ccc(-c3ccccc3OC(F)(F)F)nc12 [Compound 610]					B (EC1.5 1-25 μM)	< 350%	A (EC1.5<1 μM)	≥ 350%
Cc1cc(-c2ccccc2C(F)(F)F)nn2c(C(=O)Nc3ccnc(OC(C)C)n3)cnc12 [Compound 615]					A (EC1.5<1 μM)	≥ 350%	A (EC1.5<1 μM)	≥ 350%
Cc1cncc(NC(=O)c2cnn3ccc(-c4ccccc4OC(F)(F)F)nc23)c1 [Compound 616]					A (EC1.5<1 μM)	≥ 350%	A (EC1.5<1 μM)	≥ 350%
COCCOc1nccc(NC(=O)c2cnc3c(C)cc(-c4ccccc4C(F)(F)F)nn23)n1 [Compound 627]					A (EC1.5<1 μM)	≥ 350%	A (EC1.5<1 μM)	≥ 350%
Cc1cccc(NC(=O)c2c(C)nn3ccc(-c4ccccc4C(F)(F)F)nc23)n1 [Compound 628, 2-methyl-N-(6-methylpyridin-2-yl)-5-(2-(trifluoromethyl)phenyl)pyrazolo[1,5-a]pyrimidine-3-carboxamide]					A (EC1.5<1 μM)	≥ 350%	A (EC1.5<1 μM)	≥ 350%
Cc1ncccc1NC(=O)c1cnn2ccc(-c3ccccc3C(F)(F)F)nc12 [Compound 630]					B (EC1.5 1-25 μM)	< 350%	A (EC1.5<1 μM)	≥ 350%
COCCOc1nccc(NC(=O)c2cnc3ccc(-c4ccccc4C(F)(F)F)nn23)n1 [Compound 634]					A (EC1.5<1 μM)	≥ 350%	A (EC1.5<1 μM)	≥ 350%
Cc1nccc(NC(=O)c2c(C)nn3ccc(-c4ccccc4C(F)(F)F)nc23)c1C [Compound 639]					A (EC1.5<1 μM)	≥ 350%	A (EC1.5<1 μM)	≥ 350%
Cc1ccncc1NC(=O)c1cnn2ccc(-c3ccccc3C(F)(F)F)nc12 [Compound 640]					B (EC1.5 1-25 μM)	< 350%	B (EC1.5 1-25 μM)	< 350%
O=C(Nc1cncc(F)c1)c1cnn2ccc(-c3ccccc3C(F)(F)F)nc12 [Compound 642]					A (EC1.5<1 μM)	≥ 350%	B (EC1.5 1-25 μM)	≥ 350%
O=C(Nc1cnc2ccc(-c3ccccc3C(F)(F)F)nn12)c1cncc(OC[C@@H](O)CO)n1 [Compound 645]					A (EC1.5<1 μM)	≥ 350%	A (EC1.5<1 μM)	≥ 350%
Cc1cc(-c2ccccc2C(F)(F)F)nn2c(C(=O)Nc3nccc(N4CCCC4)n3)cnc12 [Compound 647]					A (EC1.5<1 μM)	≥ 350%	A (EC1.5<1 μM)	≥ 350%
Cc1csc(NC(=O)c2c(C)nn3ccc(-c4ccccc4C(F)(F)F)nc23)n1 [Compound 650]					A (EC1.5<1 μM)	≥ 350%	A (EC1.5<1 μM)	≥ 350%
Cc1cccnc1NC(=O)c1cnn2ccc(-c3ccccc3C(F)(F)F)nc12 [Compound 653]					C (EC1.5>25 μM)	< 350%	B (EC1.5 1-25 μM)	≥ 350%

More lines, now with the values ahead:

TAMRA EC1.5 (SIRT1 [1]; TAMRA peptide substrate)	Emax (SIRT1 [1]; TAMRA peptide substrate)	Trp EC1.5 (SIRT1 [2]; Trp peptide substrate)	Emax (SIRT1 [2]; Trp peptide substrate)	TAMRA EC1.5 (μM) (SIRT1 [1]; TAMRA assay)	Emax (SIRT1 [1]; TAMRA assay)	Trp EC1.5 (μM) (SIRT1 [2]; Trp assay)	Emax (SIRT1 [2]; Trp assay)	SMILES
				A (EC1.5<1 μM)	≥ 350%	B (EC1.5 1-25 μM)	< 350%	Cc1ccnc(NC(=O)c2cnn3ccc(-c4ccccc4OC(F)(F)F)nc23)c1 [Compound 604]
				A (EC1.5<1 μM)	≥ 350%	A (EC1.5<1 μM)	< 350%	O=C(Nc1ccncc1F)c1cnn2ccc(-c3ccccc3OC(F)(F)F)nc12 [Compound 606]
				C (EC1.5>25 μM)	< 350%	C (EC1.5>25 μM)	< 350%	O=C(Nc1ccc(F)cn1)c1cnn2ccc(-c3ccccc3OC(F)(F)F)nc12 [Compound 609]
				A (EC1.5<1 μM)	≥ 350%	A (EC1.5<1 μM)	≥ 350%	Cc1cc(NC(=O)c2cnn3ccc(-c4ccccc4OC(F)(F)F)nc23)ccn1 [Compound 612]
				A (EC1.5<1 μM)	≥ 350%	B (EC1.5 1-25 μM)	≥ 350%	Cc1ccc(NC(=O)c2cnn3ccc(-c4ccccc4C(F)(F)F)nc23)nc1 [Compound 618]
				A (EC1.5<1 μM)	≥ 350%	A (EC1.5<1 μM)	≥ 350%	Cc1ccc(NC(=O)c2cnn3ccc(-c4ccccc4OC(F)(F)F)nc23)cn1 [Compound 621]
				B (EC1.5 1-25 μM)	< 350%	A (EC1.5<1 μM)	≥ 350%	Cc1ncccc1NC(=O)c1cnn2ccc(-c3ccccc3OC(F)(F)F)nc12 [Compound 622]
				A (EC1.5<1 μM)	≥ 350%	A (EC1.5<1 μM)	≥ 350%	O=C(Nc1cccnn1)c1cnn2ccc(-c3ccccc3OC(F)(F)F)nc12 [Compound 624]
				A (EC1.5<1 μM)	≥ 350%	B (EC1.5 1-25 μM)	< 350%	Cc1ccc(NC(=O)c2cnn3ccc(-c4ccccc4OC(F)(F)F)nc23)nn1 [Compound 633]
				A (EC1.5<1 μM)	≥ 350%	B (EC1.5 1-25 μM)	< 350%	CCOc1ccc(NC(=O)c2cnn3ccc(-c4ccccc4OC(F)(F)F)nc23)nn1 [Compound 636]
